In PubChem BioAssay (NCI) one finds TGI and GI50 data, which are given here for 17 compounds.

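How tested: cells in 96-well plates exposed to compound for 48 hours at five concentrations. Here, GI50 denotes the concentration required for 50% inhibition of growth. At the TGI there is no net growth.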

Test systems include OVCAR-3 ovarian; NCI-H23 lung; SK-MEL-28 melanoma; SW-620 colon; UACC-62 melanoma; HL-60(TB) leukemia; SF-268 CNS; LOX IMVI melanoma; SF-295 CNS; HCC-2998 colon.
What all share (test): inhibition of tumour cell growth, NCI panel, 48 h

On to `COc1c(OC)c(OC)c(-c2cc(=O)c3c(OC)c(OC)c(OC)c(OC)c3o2)c(OC)c1OC`, for which the TGI in the assay with OVCAR-3 ovarian was 33.5 µM; in the assay on NCI-H23 lung it was 95.7 µM; with SK-MEL-28 melanoma it was above 100 µM; in the assay on SW-620 colon, above 100 µM; in the assay with UACC-62 melanoma, above 100 µM; with HL-60(TB) leukemia it was above 100 µM. Further, the TGI in the assay on SF-268 CNS, with LOX IMVI melanoma, in the assay on SF-295 CNS and in the assay on HCC-2998 colon was above 100 µM throughout.
On to `ClCc1ccc(-c2ccc(Cn3cnc4c(Cl)ncnc43)cc2)cc1`, for which the GI50 in the assay with OVCAR-3 ovarian is 1.83 µM; in the assay with NCI-H23 lung it was 1.84 µM; in the assay with SK-MEL-28 melanoma it was 2.49 µM; with SW-620 colon, 2.43 µM; in the assay on UACC-62 melanoma, 1.58 µM; in the assay on HL-60(TB) leukemia, 2.18 µM. In addition, the GI50 in the assay with SF-268 CNS was 1.13 µM; in the assay with LOX IMVI melanoma, 1.33 µM; with SF-295 CNS, 1.92 µM; with HCC-2998 colon it was 1.44 µM. Moreover, the TGI in the assay with OVCAR-3 ovarian was found to be 3.8 µM; in the assay on NCI-H23 lung it was 3.65 µM; with SK-MEL-28 melanoma it was 7.79 µM; in the assay on SW-620 colon it was 6.63 µM; with UACC-62 melanoma, 3.44 µM; in the assay on HL-60(TB) leukemia it was 5.59 µM. Further, the TGI with SF-268 CNS was 3.51 µM; with LOX IMVI melanoma, 3.01 µM; in the assay on SF-295 CNS, 4.89 µM; in the assay with HCC-2998 colon, 2.89 µM.
As for `C=C(C)C1CCC2(C(=O)O)CCC3(C)C(CCC4C5(C)CCC(O)C(C)(C)C5CCC43C)C12` (stereo not given), the TGI turned out to be 7.98 µM with OVCAR-3 ovarian; 12.7 µM in the assay on NCI-H23 lung; 41.8 µM in the assay with SK-MEL-28 melanoma; 51.5 µM in the assay on SW-620 colon; 32.2 µM with UACC-62 melanoma; 10.5 µM in the assay with HL-60(TB) leukemia. In addition, the TGI amounted to 28.7 µM in the assay on SF-268 CNS, 52.8 µM with LOX IMVI melanoma, 23.6 µM in the assay on SF-295 CNS and 24.7 µM with HCC-2998 colon.
On to `O=[P+](O)c1cccnc1`, for which the TGI in the assay on OVCAR-3 ovarian, in the assay with NCI-H23 lung, with SK-MEL-28 melanoma, in the assay on SW-620 colon, in the assay on UACC-62 melanoma and in the assay with HL-60(TB) leukemia was above 100 µM each time. For the same compound, the TGI with SF-268 CNS, in the assay on LOX IMVI melanoma, with SF-295 CNS and in the assay on HCC-2998 colon was above 100 µM in each case.
In the case of `CNC(=O)c1cc(Oc2ccc3nc(NC(=O)Nc4cc(C(F)(F)F)cc(C(F)(F)F)c4)sc3c2)ccn1`, the GI50 in the assay on OVCAR-3 ovarian was 1.03 µM; in the assay with NCI-H23 lung it was 0.573 µM; with SK-MEL-28 melanoma, 1.29 µM; in the assay on SW-620 colon it was 1.56 µM; with UACC-62 melanoma, 0.583 µM; in the assay on HL-60(TB) leukemia, 1.6 µM. The GI50 with SF-268 CNS was 1.27 µM; with LOX IMVI melanoma, 1.21 µM; in the assay with SF-295 CNS it was 1.08 µM; in the assay with HCC-2998 colon it was 1.33 µM. Further, the TGI came out at 2.27 µM in the assay on OVCAR-3 ovarian; 2.38 µM in the assay on NCI-H23 lung; 2.93 µM in the assay on SK-MEL-28 melanoma; 3.29 µM with SW-620 colon; 2.1 µM with UACC-62 melanoma; 4.17 µM with HL-60(TB) leukemia. The TGI in the assay on SF-268 CNS was 2.86 µM; with LOX IMVI melanoma it was 2.53 µM; with SF-295 CNS, 2.41 µM; in the assay with HCC-2998 colon it was 3.23 µM.
As to `Cc1ccc(S(=O)(=O)OC2CSSCC2OS(=O)(=O)c2ccc(C)cc2)cc1` (stereo not given), the TGI in the assay with OVCAR-3 ovarian was 26.2 µM; in the assay with NCI-H23 lung it was 33.3 µM; in the assay on SK-MEL-28 melanoma it was 30.3 µM; in the assay on SW-620 colon, 29.6 µM; with UACC-62 melanoma it was 24.6 µM; in the assay with HL-60(TB) leukemia, 22 µM. Moreover, the TGI amounted to 31.9 µM with SF-268 CNS, 28.5 µM in the assay with LOX IMVI melanoma, 30.5 µM in the assay with SF-295 CNS and 35.5 µM with HCC-2998 colon.
Consider `Cc1cc2c(C)nn(Cc3ccccc3Cl)c2c(C#N)c1C`, for which the TGI with OVCAR-3 ovarian, with NCI-H23 lung, in the assay on SK-MEL-28 melanoma, with SW-620 colon, in the assay with UACC-62 melanoma and in the assay on HL-60(TB) leukemia was above 100 µM throughout. Further, the TGI in the assay with SF-268 CNS, in the assay on LOX IMVI melanoma, in the assay on SF-295 CNS and in the assay with HCC-2998 colon was above 100 µM each time.
Consider `COC1/C=C/OC2(C)Oc3c(C)c(O)c4c(O)c(c(C=NOC(c5ccccc5)c5ccccc5)c(O)c4c3C2=O)NC(=O)/C(C)=C/C=C/C(C)C(O)C(C)C(O)C(C)C(OC(C)=O)C1C` (stereo not given), for which the GI50 in the assay with OVCAR-3 ovarian is 1 µM; in the assay on NCI-H23 lung, 1.48 µM; in the assay with SK-MEL-28 melanoma, 0.959 µM; with SW-620 colon, 1.35 µM; in the assay with UACC-62 melanoma it was 0.935 µM; in the assay on HL-60(TB) leukemia, 1.84 µM. The GI50 in the assay on SF-268 CNS was 2.25 µM; in the assay on LOX IMVI melanoma it was 0.913 µM; with SF-295 CNS it was 1.21 µM; in the assay on HCC-2998 colon, 0.97 µM. Besides, the TGI with OVCAR-3 ovarian was found to be 2.01 µM; in the assay on NCI-H23 lung, 5.43 µM; with SK-MEL-28 melanoma it was 2.08 µM; in the assay with SW-620 colon it was 3.72 µM; with UACC-62 melanoma, 1.97 µM; with HL-60(TB) leukemia, 3.83 µM. The TGI in the assay on SF-268 CNS is 8.23 µM; in the assay on LOX IMVI melanoma, 1.82 µM; with SF-295 CNS it was 3.57 µM; in the assay on HCC-2998 colon it was 1.93 µM.
On to `CCCCCCn1c2c(c3c(O)cccc31)C(=O)c1ccccc1-2`, for which the GI50 in the assay with OVCAR-3 ovarian was 20.6 µM; with NCI-H23 lung, 18.4 µM; in the assay with SK-MEL-28 melanoma, 35.9 µM; in the assay with SW-620 colon, 18.2 µM; with UACC-62 melanoma, 17.5 µM; in the assay with HL-60(TB) leukemia, 18.7 µM. For the same compound, the GI50 in the assay on SF-268 CNS was 20.3 µM; in the assay with LOX IMVI melanoma, 18.1 µM; with SF-295 CNS, 21 µM; with HCC-2998 colon it was 15.7 µM. The TGI in the assay on OVCAR-3 ovarian was 43 µM; in the assay on NCI-H23 lung, 34.7 µM; in the assay on SK-MEL-28 melanoma, above 100 µM; with SW-620 colon, 34.8 µM; in the assay on UACC-62 melanoma it was 31.7 µM; in the assay on HL-60(TB) leukemia, 63.6 µM. The TGI with SF-268 CNS was 40.5 µM; with LOX IMVI melanoma it was 33.8 µM; in the assay with SF-295 CNS, 44.8 µM; in the assay on HCC-2998 colon, 29.4 µM.
Regarding `CSc1nc(SC)c2c(C)cn(C3OC(C)C(O)C(O)C3O)c2n1` (stereo not given), the TGI with OVCAR-3 ovarian, with NCI-H23 lung, in the assay with SK-MEL-28 melanoma, in the assay with SW-620 colon, in the assay on UACC-62 melanoma and in the assay with HL-60(TB) leukemia was above 100 µM each time. Besides, the TGI in the assay with SF-268 CNS, in the assay with LOX IMVI melanoma, in the assay on SF-295 CNS and with HCC-2998 colon was above 100 µM in each case.
As for `COc1cc([C@@H]2c3cc4c(cc3[C@@H](NC(=O)c3ccc(OC(C)=O)cc3)C3COC(=O)[C@@H]32)OCO4)cc(OC)c1O` (stereo not given in full), the TGI was 22.3 µM in the assay with OVCAR-3 ovarian; 3.31 µM in the assay on NCI-H23 lung; 23.5 µM in the assay with SK-MEL-28 melanoma; 15 µM with SW-620 colon; 3.14 µM in the assay with UACC-62 melanoma; 0.688 µM in the assay with HL-60(TB) leukemia. In addition, the TGI with SF-268 CNS was above 100 µM; in the assay on LOX IMVI melanoma it was 10.1 µM; with SF-295 CNS, 50.9 µM; in the assay with HCC-2998 colon, 14.7 µM.
Take `COc1ccc(NC(=O)C2=CC(=O)c3ccc(O)cc3C2=O)c(OC)c1`: the TGI in the assay with OVCAR-3 ovarian, in the assay with NCI-H23 lung, with SK-MEL-28 melanoma, in the assay with SW-620 colon, in the assay on UACC-62 melanoma and with HL-60(TB) leukemia was above 100 µM throughout. The TGI in the assay with SF-268 CNS, with LOX IMVI melanoma, in the assay on SF-295 CNS and in the assay on HCC-2998 colon was above 100 µM each time.
For the compound `C/C(CC(=O)Nc1ccc([N+](=O)[O-])cc1)=N\Nc1ccc([N+](=O)[O-])cc1[N+](=O)[O-]`, the TGI with OVCAR-3 ovarian, in the assay with NCI-H23 lung, in the assay with SK-MEL-28 melanoma, with SW-620 colon, in the assay on UACC-62 melanoma and in the assay with HL-60(TB) leukemia was above 100 µM throughout. The TGI with SF-268 CNS was above 100 µM; in the assay with LOX IMVI melanoma, above 100 µM; in the assay with SF-295 CNS, above 100 µM; in the assay on HCC-2998 colon, 65.4 µM.
`O=C(O)CCCc1cc2c(s1)-c1cccc3cccc-2c13`: the TGI in the assay with OVCAR-3 ovarian was 49.5 µM; in the assay with NCI-H23 lung, 41.2 µM; in the assay on SK-MEL-28 melanoma, above 100 µM; in the assay on SW-620 colon, above 100 µM; in the assay on UACC-62 melanoma, 47.2 µM; with HL-60(TB) leukemia, 57.5 µM. The TGI in the assay on SF-268 CNS is above 100 µM; in the assay on LOX IMVI melanoma, 52 µM; with SF-295 CNS it was above 100 µM; in the assay on HCC-2998 colon, 50.2 µM.
As to `CN(CCCCN)c1ccc2c(=O)[nH][nH]c(=O)c2c1`, the TGI was above 100 µM in the assay on OVCAR-3 ovarian; 5.1 µM in the assay on NCI-H23 lung; above 100 µM with SK-MEL-28 melanoma; above 100 µM in the assay on SW-620 colon; above 77 µM with UACC-62 melanoma; above 100 µM with HL-60(TB) leukemia. In addition, the TGI with SF-268 CNS, with LOX IMVI melanoma, in the assay on SF-295 CNS and in the assay with HCC-2998 colon was above 100 µM throughout.
Take `Cc1nc2cc(Nc3nc(Nc4ccc(F)cc4)nc(N4CCCC4)n3)ccc2n1Cc1ccccc1`: the GI50 with OVCAR-3 ovarian is 1.77 µM; with NCI-H23 lung, 2.2 µM; with SK-MEL-28 melanoma it was 1.88 µM; with SW-620 colon, 1.66 µM; in the assay on UACC-62 melanoma, 1.62 µM; in the assay on HL-60(TB) leukemia, 2.58 µM. In addition, the GI50 in the assay on SF-268 CNS is 1.94 µM; in the assay on LOX IMVI melanoma, 1.84 µM; with SF-295 CNS it was 2.15 µM; with HCC-2998 colon, 1.93 µM. Moreover, the TGI was determined as 3.28 µM in the assay with OVCAR-3 ovarian; 5.31 µM in the assay on NCI-H23 lung; 3.92 µM in the assay on SK-MEL-28 melanoma; 3.14 µM in the assay with SW-620 colon; 2.99 µM in the assay with UACC-62 melanoma; 5.3 µM in the assay on HL-60(TB) leukemia. In addition, the TGI was 3.9 µM with SF-268 CNS, 3.36 µM in the assay with LOX IMVI melanoma, 4.78 µM with SF-295 CNS and 3.73 µM in the assay on HCC-2998 colon.
In the case of `COc1cc(=O)oc(/C=C/CO)c1C`, the TGI with OVCAR-3 ovarian, in the assay on NCI-H23 lung, in the assay with SK-MEL-28 melanoma, with SW-620 colon, in the assay on UACC-62 melanoma and in the assay on HL-60(TB) leukemia was above 100 µM in each case. The TGI in the assay with SF-268 CNS, in the assay on LOX IMVI melanoma, with SF-295 CNS and in the assay on HCC-2998 colon was above 100 µM each time.
